According to patent US20240376090A1, “ISOXAZOLE DERIVATIVES AS MODULATORS OF THE 5-HT2A SEROTONIN RECEPTOR USEFUL FOR THE TREATMENT OF DISORDERED RELATED THERETO” (Arena Pharmaceuticals, Inc., priority 2020, published 2024):

How the values were obtained:
[1] = molecular target: 5-HT2B receptor (Homo sapiens (Human), UniProt P41595); experiment: HTRF IP-One antagonist assay, 5-HT2B; type: cell-based; conditions: HEK293 cells stably expressing recombinant human receptor; IP accumulation with 80 nM 5-HT
Sequence of 5-HT2B receptor (P41595 whole entry): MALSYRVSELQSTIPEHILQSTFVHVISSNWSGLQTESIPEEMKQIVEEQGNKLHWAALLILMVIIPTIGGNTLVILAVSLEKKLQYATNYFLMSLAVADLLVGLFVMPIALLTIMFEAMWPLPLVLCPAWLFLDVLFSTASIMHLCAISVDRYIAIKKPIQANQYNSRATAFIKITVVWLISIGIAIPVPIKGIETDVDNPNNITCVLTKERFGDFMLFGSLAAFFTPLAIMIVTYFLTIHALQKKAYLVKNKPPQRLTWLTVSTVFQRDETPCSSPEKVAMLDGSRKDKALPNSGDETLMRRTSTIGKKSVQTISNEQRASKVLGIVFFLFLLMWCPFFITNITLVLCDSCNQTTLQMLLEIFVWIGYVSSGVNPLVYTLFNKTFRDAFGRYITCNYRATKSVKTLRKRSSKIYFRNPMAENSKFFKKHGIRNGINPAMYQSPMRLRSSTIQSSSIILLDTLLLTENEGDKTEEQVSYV
Procedure: (§1) HEK293 cells stably expressing 5-HT2 receptors were generated using standard procedures. Cells were dilution cloned and clonal cell lines stably expressing the receptors at low levels were selected for pharmacology studies. In radioligand binding studies using a variety of radiolabeled probes, receptor densities in the 2A, 2B and 2C cell lines were estimated to be 50-70, 150-200, and 10-20 fmol/mg, respectively.
(§2) Inositol phosphate accumulation assays were performed using the HTRF IP-One assay system developed by Cisbio and generally followed the manufacturer's instructions. Briefly, HEK293 cells stably expressing recombinant human receptors were harvested and resuspended in phenol-red free OptiMEM (ThermoFisher), plated into 384-well assay plates (Perkin Elmer, ProxiPlate-Plus® Cat #6008280) at 10,000 cells/well in a volume of 10 μL/well, and incubated overnight at 37° C., 5% CO2. Test compounds were solubilized and serially diluted in DMSO, and then diluted into Assay Buffer (Tris HCl 20 mM, NaCl 150 mM, LiCl 40 mM, pargyline 25 μM, pH 8) containing 80 nM 5-HT. Test compounds were added to the cells (4 μL/well addition, maximal final assay concentration typically 10 μM) and plates, incubated for 2 hrs at 37° C./5% CO2 and then removed from the incubator and allowed to cool to room temperature for 30 minutes prior to addition of IP-One detection reagents. IP-One detection reagents (6 μL/well) were added and plates incubated for 1 hr at room temperature before reading on an HTRF compatible reader such as a Perkin Elmer EnVision® or BMG PheraStar®. Dose-response experiments utilized 10-point curves, typically starting at 10 μM, with 5-fold serial dilutions. Experiments were performed with triplicate data points and independent replicate experiments were performed to ensure data consistency.

[2] = molecular target: 5-HT2C receptor (Homo sapiens (Human), UniProt P28335); experiment: HTRF IP-One antagonist assay, 5-HT2C; type: cell-based; conditions: HEK293 cells stably expressing recombinant human receptor; IP accumulation with 80 nM 5-HT
Sequence of 5-HT2C receptor (P28335 33-458): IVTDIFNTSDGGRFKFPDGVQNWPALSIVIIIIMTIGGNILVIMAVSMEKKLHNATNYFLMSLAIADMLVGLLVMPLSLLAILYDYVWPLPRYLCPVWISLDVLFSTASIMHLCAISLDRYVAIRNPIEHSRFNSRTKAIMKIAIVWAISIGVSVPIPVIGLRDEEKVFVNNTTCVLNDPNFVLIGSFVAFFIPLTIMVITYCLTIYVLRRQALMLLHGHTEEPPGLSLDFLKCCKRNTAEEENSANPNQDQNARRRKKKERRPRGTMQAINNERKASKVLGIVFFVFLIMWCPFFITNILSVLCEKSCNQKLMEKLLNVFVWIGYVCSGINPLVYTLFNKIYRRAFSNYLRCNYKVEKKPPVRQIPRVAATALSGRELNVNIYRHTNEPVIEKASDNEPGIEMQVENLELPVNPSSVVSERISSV
Procedure: as §1, §2

[3] = molecular target: T1, 5-HT2A receptor (Homo sapiens (Human), UniProt P28223); experiment: HTRF IP-One antagonist assay, 5-HT2A; type: cell-based; conditions: HEK293 cells stably expressing recombinant human receptor; IP accumulation with 80 nM 5-HT
T1 sequence (P28223 whole entry): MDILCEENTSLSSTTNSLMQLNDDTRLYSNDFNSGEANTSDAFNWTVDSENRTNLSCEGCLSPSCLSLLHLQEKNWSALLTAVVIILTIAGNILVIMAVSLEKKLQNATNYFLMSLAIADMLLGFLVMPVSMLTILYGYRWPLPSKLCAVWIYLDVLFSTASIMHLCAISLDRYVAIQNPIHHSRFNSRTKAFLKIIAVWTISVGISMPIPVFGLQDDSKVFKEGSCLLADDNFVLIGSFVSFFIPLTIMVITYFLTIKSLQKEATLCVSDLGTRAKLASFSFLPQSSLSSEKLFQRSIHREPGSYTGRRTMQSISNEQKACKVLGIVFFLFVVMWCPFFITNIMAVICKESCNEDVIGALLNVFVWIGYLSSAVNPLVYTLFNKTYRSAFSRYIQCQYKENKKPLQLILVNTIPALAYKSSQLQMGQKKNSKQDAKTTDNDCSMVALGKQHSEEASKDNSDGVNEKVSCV
Procedure: as §1, §2

[4] = molecular target: T1, 5-HT2A receptor; experiment: Radioligand binding assay ([3H]5-HT competition), 5-HT2A; conditions: [3H]5-HT radioligand, membranes of HEK293 cells expressing recombinant 5-HT2A; Ki from IC50 by Cheng-Prusoff; read-out: 5-HT2A serotonin binding Ki value

Row | IC50 [1] | IC50 [2] | IC50 [3] | Ki [4] | SMILES
1 | ≥ 100000 nM | ≥ 100000 nM | 17.8 nM | 1.36 nM | Cc1noc(C)c1-c1cc(NC(=O)c2c(F)cnn2C)ccc1OC1CNC1 [Compound 240, N-(4-(azetidin-3-yloxy)-3-(3,5-dimethylisoxazol-4-yl)phenyl)-4-fluoro-1-methyl-1H-pyrazole-5-carboxamide]
2 | ≥ 100000 nM | ≥ 100000 nM | 8.69 nM | 2.6 nM | Cc1noc(C)c1-c1cc(NC(=O)c2c(F)cnn2C)ccc1OCCN1CCCC1 [Compound 114, N-(3-(3,5-dimethylisoxazol-4-yl)-4-(2-(pyrrolidin-1-yl)ethoxy)phenyl)-4-fluoro-1-methyl-1H-pyrazole-5-carboxamide]
3 | ≥ 100000 nM | ≥ 100000 nM | 60.1 nM | 7.61 nM | Cc1noc(C)c1-c1cc(NC(=O)[C@H]2C[C@H]2F)ccc1OC[C@H]1CCCCN1 [Compound 191, (1R,2R)—N-(3-(3,5-dimethylisoxazol-4-yl)-4-(((R)-piperidin-2-yl)methoxy)phenyl)-2-fluorocyclopropane-1-carboxamide]
4 | ≥ 100000 nM | ≥ 100000 nM | 10.4 nM | 2.92 nM | Cc1noc(C)c1-c1cc(NC(=O)c2ccc(F)cc2)ccc1OC[C@H]1CCCCN1 [Compound 219, (R)—N-(3-(3,5-dimethylisoxazol-4-yl)-4-(piperidin-2-ylmethoxy)phenyl)-4-fluorobenzamide]
5 | ≥ 100000 nM | ≥ 100000 nM | 10.9 nM | 10.4 nM | Cc1noc(C)c1-c1cc(NC(=O)Cc2cncc(F)c2)ccc1OC[C@H]1CCCCN1 [Compound 226, (R)—N-(3-(3,5-dimethylisoxazol-4-yl)-4-(piperidin-2-ylmethoxy)phenyl)-2-(5-fluoropyridin-3-yl)acetamide]
6 | ≥ 100000 nM | 6210 nM | 16.5 nM | 1.07 nM | Cc1noc(C)c1-c1cc(NC(=O)c2cccc(F)c2)ccc1OC1CNC1 [Compound 243, N-(4-(azetidin-3-yloxy)-3-(3,5-dimethylisoxazol-4-yl)phenyl)-3-fluorobenzamide]
7 | ≥ 100000 nM | ≥ 100000 nM | 19 nM | 0.85 nM | COc1cccc(C(=O)Nc2ccc(OC3CNC3)c(-c3c(C)noc3C)c2)c1 [Compound 244, N-(4-(azetidin-3-yloxy)-3-(3,5-dimethylisoxazol-4-yl)phenyl)-3-methoxybenzamide]
8 | ≥ 100000 nM | ≥ 100000 nM | 8.95 nM | 2.66 nM | Cc1noc(C)c1-c1cc(NC(=O)C2(F)CC2)ccc1OCCN1CCCC1 [Compound 113, N-[3-(3,5-dimethylisoxazol-4-yl)-4-(2-pyrrolidin-1-ylethoxy)phenyl]-1-fluoro-cyclopropanecarboxamide]
9 | ≥ 100000 nM | ≥ 100000 nM | 2.58 nM | 0.907 nM | COc1cccc(C(=O)Nc2ccc(OC[C@H]3CCCCN3)c(-c3c(C)noc3C)c2)c1 [Compound 220, (R)—N-(3-(3,5-dimethylisoxazol-4-yl)-4-(piperidin-2-ylmethoxy)phenyl)-3-methoxybenzamide]
10 | ≥ 100000 nM | ≥ 100000 nM | 37.9 nM | 2.05 nM | Cc1noc(C)c1-c1cc(NC(=O)C2(F)CC2)ccc1OC1CNC1 [Compound 245, N-(4-(azetidin-3-yloxy)-3-(3,5-dimethylisoxazol-4-yl)phenyl)-1-fluorocyclopropane-1-carboxamide]
11 | ≥ 100000 nM | ≥ 100000 nM | 45.2 nM | 3.61 nM | Cc1noc(C)c1-c1cc(NC(=O)C2(F)CC2)ccc1O[C@@H]1CCNC1 [Compound 238, (R)—N-(3-(3,5-dimethylisoxazol-4-yl)-4-(pyrrolidin-3-yloxy)phenyl)-1-fluorocyclopropane-1-carboxamide]
12 | ≥ 100000 nM | ≥ 100000 nM | 13 nM | 9.58 nM | Cc1ncsc1C(=O)Nc1ccc(OCCN2CCC2)c(-c2c(C)noc2C)c1 [Compound 119, N-(4-(2-(azetidin-1-yl)ethoxy)-3-(3,5-dimethylisoxazol-4-yl)phenyl)-4-methylthiazole-5-carboxamide]
13 | ≥ 100000 nM | ≥ 100000 nM | 2.39 nM | 0.657 nM | Cc1noc(C)c1-c1cc(NC(=O)Cc2cnsc2)ccc1OC[C@H]1CCCCN1 [Compound 234, (R)—N-(3-(3,5-dimethylisoxazol-4-yl)-4-(piperidin-2-ylmethoxy)phenyl)-2-(isothiazol-4-yl)acetamide]
14 | ≥ 100000 nM | ≥ 100000 nM | 45 nM | 10.2 nM | Cc1ncoc1C(=O)Nc1ccc(OC[C@H]2CCCCN2)c(-c2c(C)noc2C)c1 [Compound 196, (R)—N-(3-(3,5-dimethylisoxazol-4-yl)-4-(piperidin-2-ylmethoxy)phenyl)-4-methyloxazole-5-carboxamide]

Row | SMILES | IC50 [1] | IC50 [2] | IC50 [3] | Ki [4]
15 | COCCNCCOc1ccc(NC(=O)C2CC2)cc1-c1c(C)noc1C [Compound 197, N-[3-(3,5-dimethylisoxazol-4-yl)-4-[2-(2-methoxyethylamino)ethoxy]phenyl]cyclopropanecarboxamide] | ≥ 100000 nM | ≥ 100000 nM | 4.95 nM | 1.08 nM
